Results: patent US20040236269A1, “Microsurgical tissue treatment system” (priority 2002, published 2004)

Assay: Delivery of a topical anesthetic through micro-ablated stratum corneum; sensation probed with 20 gauge needle or by pinching
Format: in vivo
Conditions: solution of 4% lidocaine applied for five minutes to approx. 1 cm^2 area ablated by piezoelectric actuator with 60 micron aluminum oxide particles, 10-15 pulses, 20 kHz; probed with 20 gauge needle or pinching
Method: A piezoelectric actuator was fitted with 60 micron aluminum oxide particles fixed to its surface so as to provide an approximate 1 cm^2 treatment area. Ten to fifteen pulses of less than one second duration were applied with force of less than 1 pound to the area and frequency of 20 kHz. […] A solution of 4% lidocaine was applied to the area and incubated for five minutes. The excess lidocaine was wiped off, and a series of probes was made in and around the area of treatment using a 20 gauge needle or by pinching.

## CCN(CC)CC(=O)Nc1c(C)cccc1C [lidocaine]
  anesthesia (lack of sensation within and in close proximity to the treatment site): significant anesthesia was obtained
